# Assay results from the NIST ThermoML archive (doi:10.1021/je700190m).
# Numbers after ± are expanded uncertainties.
# Assay: wn = mass fraction of the nth substance listed
# Conditions: 310 K; 101.3 kPa; Liquid; Concentric cylinders viscometry; w1 = 0.1
row,Compound,viscosity [mPa·s]
1,O=C(CO)[C@@H](O)[C@H](O)[C@@H](CO)O[C@H]1O[C@H](CO)[C@@H](O)[C@H](O)[C@H]1O [leucrose] + O,1.05 ± 0.21
2,OC[C@@H](O)[C@H](O)[C@@H](O)CO [xylitol] + O,1.03 ± 0.21
3,OC[C@@H](O)[C@@H](O[C@H]1O[C@H](CO)[C@@H](O)[C@H](O)[C@H]1O)[C@H](O)[C@@H](O)CO [4-O-α-D-glucopyranosyl-D-glucitol] + O,1.08 ± 0.22
4,OC[C@@H](O)[C@@H](O)[C@H](O)[C@@H](O)CO [D-sorbitol] + O,1.02 ± 0.21

# Now from value to compound:
row,viscosity [mPa·s],Compound
1,1.03 ± 0.21,OC[C@@H](O)[C@@H](O)[C@H](O)[C@H](O)CO [mannitol] + O
2,1.06 ± 0.21,OC[C@H]1O[C@@](CO)(O[C@H]2O[C@H](CO)[C@@H](O)[C@H](O)[C@H]2O)[C@@H](O)[C@@H]1O [D-sucrose] + O
3,1.16 ± 0.23,O=C[C@H](O)[C@@H](O)[C@H](O[C@@H]1O[C@H](CO)[C@H](O)[C@H](O)[C@H]1O)[C@H](O)CO [4-O-β-D-galactopyranosyl-D-glucose] + O
4,1 ± 0.2,O=C[C@H](O)[C@@H](O)[C@H](O)[C@H](O)CO [D-glucose] + O
5,1.1 ± 0.22,O.O.OC[C@H]1O[C@H](O[C@H]2O[C@H](CO)[C@@H](O)[C@H](O)[C@H]2O)[C@H](O)[C@@H](O)[C@@H]1O [D-(+)-trehalose dihydrate] + O
6,1.22 ± 0.25,"O.O.O.O.O.OC[C@H]1O[C@H](OC[C@H]2O[C@H](O[C@]3(CO)O[C@H](CO)[C@@H](O)[C@@H]3O)[C@H](O)[C@@H](O)[C@@H]2O)[C@H](O)[C@@H](O)[C@H]1O [D-raffinose, pentahydrate] + O"
